Test results as given in patent EP4818324A1, “BIOLOGICAL METHOD FOR PREPARING 1,2-PROPANEDIOL” (Tianjin University, priority 2023, dated 2025).

Assays:
[1] = system: Lactiplantibacillus plantarum 1,5-anhydroglucitol-6-phosphate isomerase LpYbiW (Uniprot A0A807DR53), SEQ ID NO: 2; test: Michaelis-Menten kinetics of LpYbiW, coupled with LpFsaA and EcGldA, NADH consumption at A340nm; type: biochemical; conditions: substrate 1,5-anhydroglucitol-6-phosphate at varying concentrations; 100 nM activated LpYbiW, 20 mM Tris/HCl pH 7.5, 100 mM KCl, 0.4 mM NADH, glove box
Method: The Michaelis-Menten kinetic parameters of LpYbiW were determined by coupling with LpFsaA and EcGldA. The reaction rate of LpYbiW was monitored by measuring NADH consumption at A340nm. The absorbance change of the reaction system at 340 nm was measured every 5 seconds using the cuvette mode of an ultra-micro UV-visible spectrophotometer (Nanophotometer) in a glove box (1 cm light path). These reaction systems consisted of 100 nM activated LpYbiW, 20 mM Tris/HCl, (pH 7.5), 100 mM KCl, 1,5-anhydroglucitol-6-phosphate with varying concentrations, 5 µM LpFsaA, 5 µM EcGldA, and 0.4 mM NADH.

[2] = molecular target: T1, Escherichia coli strain K12 1,5-anhydromannitol-6-phosphate isomerase EcPflD (Uniprot P32674), SEQ ID NO: 98 (Escherichia coli, UniProt P32674); test: Michaelis-Menten kinetics of EcPflD, coupled with EcFsaB and EcGldA, decrease in A340nm; type: biochemical; conditions: substrate 1,5-AM-6P at various concentrations; 40 nM activated EcPflD, 20 mM Tris/HCl pH 7.5, 100 mM KCl, 0.4 mM NADH, glove box
T1 sequence (P32674 1-765): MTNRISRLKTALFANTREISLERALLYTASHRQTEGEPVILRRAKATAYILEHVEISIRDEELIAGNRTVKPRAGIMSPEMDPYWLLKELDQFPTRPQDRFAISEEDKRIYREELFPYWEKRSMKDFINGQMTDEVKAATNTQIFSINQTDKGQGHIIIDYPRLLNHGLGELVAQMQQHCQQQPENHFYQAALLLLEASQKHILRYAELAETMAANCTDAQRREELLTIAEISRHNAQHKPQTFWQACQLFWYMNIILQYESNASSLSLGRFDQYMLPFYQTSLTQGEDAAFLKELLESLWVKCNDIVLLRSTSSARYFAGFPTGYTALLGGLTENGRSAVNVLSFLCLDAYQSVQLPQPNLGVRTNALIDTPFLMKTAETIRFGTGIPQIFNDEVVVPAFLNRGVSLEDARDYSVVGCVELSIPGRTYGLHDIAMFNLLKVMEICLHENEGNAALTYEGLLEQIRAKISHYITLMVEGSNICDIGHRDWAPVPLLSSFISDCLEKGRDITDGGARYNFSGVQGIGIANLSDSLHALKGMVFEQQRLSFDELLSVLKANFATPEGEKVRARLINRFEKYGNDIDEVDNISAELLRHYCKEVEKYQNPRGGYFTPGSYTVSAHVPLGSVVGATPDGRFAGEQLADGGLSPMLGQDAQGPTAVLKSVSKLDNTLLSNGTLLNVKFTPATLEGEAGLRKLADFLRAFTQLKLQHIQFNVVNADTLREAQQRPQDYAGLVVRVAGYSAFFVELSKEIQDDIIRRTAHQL
Method: The reaction system containing 20 mM Tris/HCl, (pH 7.5), 100 mM KCl, 40 nM activated EcPflD and 1,5-AM-6P with various substrate concentrations, 2 µM EcFsaB, 2 µM EcGldA, and 0.4 mM NADH was measured using a cuvette mode of an ultra-micro UV-Vis spectrophotometer (Hangzhou Miu Instruments Co., Ltd.) in a 1 cm Eppendorf cuvette inside a glove box. The decrease in A340nm was monitored at 5-second intervals.

Work on O=P(O)(O)OC[C@H]1OC[C@H](O)[C@@H](O)[C@@H]1O [1,5-AG-6P, 1,5-anhydroglucitol-6-phosphate] yielded a Km [1] of 36.5 ± 6.66 mM and a kcat [1] of 43.38 ± 2.96 s^-1/LpYbiW.
O=P(O)(O)OC[C@H]1OC[C@@H](O)[C@@H](O)[C@@H]1O [1,5-AM-6P, 1,5-anhydromannitol-6-phosphate] gave a Km [2] of 1.33 ± 0.12 mM and a kcat [2] of 33.47 ± 0.79 s^-1/EcPflD.
